The values that follow come from US4517202A, “Prostaglandin analogues” (May & Baker Limited, priority 1982, dated 1985).

Series [1] is described as follows: isomerisation of (Z)-isomer at ambient temperature. It counts as physicochemical.
The subject of a further series is diastolic blood pressure. The series can be described thus: fall in diastolic blood pressure in anaesthetised rats. It counts as in vivo. The note with it: rats anaesthetised with pentobarbitone; intravenously at a rate of 45 μg/kg animal body weight. The protocol: In other laboratory tests, compound B produced a 25% fall in diastolic blood pressure in rats (anaesthetised with pentobarbitone) when administered intravenously at a rate of 45 μg/kg animal body weight.

Series [2] concerns collagen-induced β-thromboglobulin release. Nature of the series: inhibition of collagen-induced β-thromboglobulin release in vitro in human blood. It counts as cell-based. The conditions noted are these: read-out: ED50 (concentration which produced 50% inhibition of the β-thromboglobulin release).
The subject of series [3] is artery and some other kinds of smooth muscle. The note with it: cited from earlier work.
Series [4] deals with arachidonic acid-induced blood platelet aggregation of the human. The note with it: human platelets; cited from earlier work.
The conditions of series [5]: cited from earlier work.
The next series has as its system blood platelets. The conditions noted are these: cited from earlier work.

Molecules are shown by their SMILES. ≈ marks a conversion by molar mass, not a printed value. Where two headings read alike, the source gives them in different places.

Turning to `O=C(O)CCC/C=C1/C[C@H]2[C@H](CC[C@@H]2/C=C/[C@@H](O)C2CCCCC2)C1=O` (relative stereo) [(Z)-isomer], the “isomerisation back to the (E)-isomer” value in series [1] is on record as “slowly isomerised back to the (E)-isomer”.

In the case of `O=C(O)CCC/C=C1\C[C@H]2[C@H](CC[C@@H]2/C=C/[C@@H](O)C2CCCCC2)C1=O` (relative stereo) [Compound B, (±)-(5E,13E)-(9S,15S)-6a-oxo-6,9-methano-15-cyclohexyl-15-hydroxy-16,17,18,19,20-pentanorprosta-5,13-dienoic acid], the “fall in diastolic blood pressure” value in the series with diastolic blood pressure turned out to be 25%. The IC50 in series [2] was 5 µg/mL (≈ 13.9 µM). With `CCCCCC(O)/C=C/[C@H]1CC[C@@H]2C(=O)/C(=C/CCCC(=O)O)C[C@@H]21` (relative stereo) [Compound E, (±)-(5E,13E)-(9S), [mixture of (15R) and (15S)]-6a-oxo-6,9-methano-15-hydroxyprosta-5,13-dienoic acid], the IC50 in series [2] is 34 µg/mL.

For the compound `CCCCCC(O)/C=C/[C@H]1CC[C@@H]2C(=O)/C(=C\CCCC(=O)O)C[C@@H]21` (relative stereo) [Compound F, (±)-(5Z,13E)-(9S), [mixture of (15R) and (15S)]-6a-oxo-6,9-methano-15-hydroxyprosta-5,13-dienoic acid], in series [2], the IC50 was less than 17 µg/mL. `O=C(O)CCC/C=C1\C[C@H]2[C@H](CC[C@@H]2/C=C/C(O)C2CCCCC2)C1=O` (relative stereo) [Compound I, (±)-(5E,13E)-(9S),[mixture of (15R) and (15S)]-6a-oxo-6,9-methano-15-cyclohexyl-15-hydroxy-16,17,18,19,20-pentanorprosta-5,13-dienoic acid]: the IC50 in series [2] was less than 17 µg/mL. As for `CCCCC[C@H](O)/C=C/[C@@H]1[C@H]2C/C(=C/CCCC(=O)O)O[C@H]2C[C@H]1O` [PGI2, (5Z,13E)-(9S,11R,15S)-6,9-epoxy-11,15-dihydroxyprosta-5,13-dienoic acid], the “activity on the artery and some other kinds of smooth muscle” value in series [3] is reported as “strong relaxing activity”. For the same compound, the “inhibition of arachidonic acid-induced blood platelet aggregation” value in series [4] is listed as “strongly inhibits”. The “time to deactivation in a buffer solution” value was 20 min in series [5] (pH 7.6, 22° C.) and 10 min in series [5] (pH 7.6, 37° C.).

Take `CCCCC[C@H](O)/C=C/[C@H]1O[C@H]2C[C@H](O2)[C@@H]1C/C=C\CCCC(=O)O` [thromboxane A2]: the “aggregating activity on blood platelets” value with blood platelets is “aggregating activity”. The “activity on the artery and some other kinds of smooth muscle” value in series [3] is recorded as “contracting activity”.
